Assay results from patent US9936701B2, “Herbicidal compounds” (Syngenta Participations AG, priority 2013, dated 2018).

Legend:
[1] = system: a variety of test species; assay: Post-emergence herbicidal activity (glasshouse, sprayed after 8 days cultivation, evaluated after 13 days); assay type: in vivo; parameters: key: 5=total damage to plant; 0=no damage to plant; details: rate 1000 g/Ha, scale 0-5
Description: (§1) Seeds of a variety of test species were sown in standard soil in pots. After 8 days cultivation (post-emergence) under controlled conditions in a glasshouse (at 24/16° C., day/night; 14 hours light; 65% humidity), the plants were sprayed with an aqueous spray solution derived from the formulation of the technical active ingredient in acetone/water (50:50) solution containing 0.5% Tween 20 (polyoxyethelyene sorbitan monolaurate, CAS RN 9005-64-5). The test plants were then grown in a glasshouse under controlled conditions (at 24/16° C., day/night; 14 hours light; 65% humidity) and watered twice daily. After 13 days, the test was evaluated (5=total damage to plant; 0=no damage to plant).

[2] = system: a variety of test species; assay: Pre-emergence herbicidal activity (glasshouse, sprayed one day after sowing, evaluated after 13 days); assay type: in vivo; parameters: key: 5=total damage to plant; 0=no damage to plant; details: application pre-emergence, rate 1000 g/Ha, scale 0-5
Description: as §1, with “After” for “After 8 days”, “for one day (pre-emergence)” for “(post-emergence)”

| SMILES | AMARE (Amaranthus retroflexus) damage score, application post-emergence [1] | ECHCG (Echinochloa crus-galli) damage score, application post-emergence [1] | SETFA (Setaria faberi) damage score, application post-emergence [1] | Pre-emergence herbicidal damage score, ABUTH [2] | Pre-emergence herbicidal damage score, ALOMY [2] | Pre-emergence herbicidal damage score, AMARE [2] | Pre-emergence herbicidal damage score, ECHCG [2] | Pre-emergence herbicidal damage score, SETFA [2] | Pre-emergence herbicidal damage score, ZEAMX [2] | ABUTH (Abutilon theophrasti) damage score, application post-emergence [1] | ALOMY (Alopecurus myosuroides) damage score, application post-emergence [1] | ZEAMX (Zea mays) damage score, application post-emergence [1] |
| --- | --- | --- | --- | --- | --- | --- | --- | --- | --- | --- | --- | --- |
| CC1=C(Cl)C(=O)N(c2cc(C(C)(C)C)on2)[C@H]1O [A10] | 5 | 5 | 5 |  |  |  |  |  |  |  |  |  |
| CCC1=C(I)C(=O)N(c2cc(C(C)(C)C)on2)C1O (stereo not drawn) [A13] | 5 | 5 | 5 | 3 | 3 | 5 | 3 | 3 | 1 | 5 | 5 | 2 |
| CCC1=C(Br)C(=O)N(c2cc(C(C)(C)C)on2)C1O (stereo not drawn) [A14] | 4 | 5 | 5 | 5 | 3 | 5 | 4 | 5 | 2 | 5 | 5 | 4 |
| CC(C)(C)c1cc(N2C(=O)C(Cl)=C(C3CC3)C2O)no1 (stereo not drawn) [A15] | 5 | 5 | 5 | 5 | 2 | 5 | 4 | 3 | 2 | 5 | 4 | 3 |
| CCC1=C(Cl)C(=O)N(c2cc(C(C)(C)C)on2)C1O (stereo not drawn) [A16] | 5 | 5 | 5 | 5 | 4 | 5 | 5 | 5 | 3 | 5 | 5 | 5 |
| CC1=C(I)C(=O)N(c2cc(C(C)(C)C)on2)[C@H]1O [A17] | 5 | 5 | 5 | 3 | 2 | 5 | 5 | 3 | 2 | 5 | 5 | 4 |
| CC(C)C1=C(Cl)C(=O)N(c2cc(C(C)(C)C)on2)C1O (stereo not drawn) [A18] | 4 | 5 | 5 | 4 | 4 | 1 | 2 | 3 | 1 | 5 | 5 | 3 |
| CCCC1=C(Cl)C(=O)N(c2cc(C(C)(C)C)on2)C1O (stereo not drawn) [A27] | 5 | 5 | 5 | 5 | 4 | 5 | 5 | 4 | 4 | 5 | 5 | 4 |
